Measured values as given in patent US7332523B2, “TNP-470 polymer conjugates and use thereof” (Children's Medical Center Corporation, priority 2002, dated 2008).

Columns and labels:
[1] = cited from earlier work
[2] = system: murine, human and metastatic tumors; details: mice; mostly 30 mg/kg subcutaneously every other day; cited from earlier work
[3] = at doses where antitumor activity has been seen; cited from earlier work
A2058 human melanoma = assay: Antitumor activity in SCID mice bearing s.c. A2058 human melanoma; type: in vivo
Excerpt: Each group consisted of 5 mice.

[4] = Early mouse development (body weight of newborn mice); details: injected into 7 and 17 day-old BALB/c mice
LLC = assay: Antitumor activity in C57BL/6J mice bearing s.c. LLC; details: 30 mg/kg q.o.d. (data not shown)
chick aortic ring = assay: Chick aortic ring endothelial sprouting assay; type: cell-based
Method: Aortic arches were dissected from day-14 chick embryos, cut into cross-sectional fragments, and implanted in vitro in Matrigel using a modification of methods previously described (V. Muthukkaruppan, personal communication). When cultured in MCDB-131 medium supplemented with 5% fetal bovine serum, endothelial cells sprouted and vascular channel formation occurred within 24-48 hours.

liver regeneration = assay: Hepatectomy model (liver regeneration); type: in vivo, C57BL/6J mice
Method: Male C57BL/6J mice underwent a partial hepatectomy through a midline incision after general anesthesia with isoflourane^33. Free or conjugated TNP-470 (30 mg/kg) were given s.c. every other day for 8 days beginning on the day of surgery according to the scheme described in FIG. 4a. Alternatively, the doses given were 60 mg/kg the day of surgery and 4 days later or 120 mg/kg once on the day of the partial hepatectomy. The liver was harvested on the 8th day, weighed and analyzed by histology.

[5] = clinical pharmacokinetics, comparison value in words; cited from earlier work

| Structure (SMILES) | body weight in animals ([1]; animals receiving TNP-470) | toxicity to mice at the higher doses ([1]; doses of 60 and 90 mg/kg/q.o.d., mice) | splenic weight ([1]; two reports) | inhibition of growth of human tumors [2] | inhibition of growth of metastatic tumors [2] | inhibition of growth of murine tumors [2] | adverse effects in patients [3] | T/C (mean tumor volume treated / untreated control) (A2058 human melanoma; 30 mg/kg TNP-equiv.) | survival (A2058 human melanoma; free or conjugated TNP-470, 30 mg/kg TNP-equiv.) | effect on growth / weight gain in normal development [4] | weight loss (LLC) | effect on vascular sprouts (chick aortic ring; 50 pg/ml) | effect on vascular sprouts (chick aortic ring; 100 pg/ml) | inhibition of liver regeneration (liver regeneration; 60 mg/kg every four days (q.4.d.)) | inhibition of liver regeneration (liver regeneration; single injection of 120 mg/kg on the day of hepatectomy) | t1/2α [5] |
| --- | --- | --- | --- | --- | --- | --- | --- | --- | --- | --- | --- | --- | --- | --- | --- | --- |
| CO[C@@H]1[C@H](OC(=O)NC(=O)CCl)CC[C@]2(CO2)[C@H]1[C@@]1(C)O[C@@H]1CC=C(C)C [TNP-470, O-(chloracetyl-carbamoyl) fumagillol] | weight loss or failure to gain weight | known to be toxic | decrease in splenic weight | up to 100% | up to 100% | up to 91% | neurotoxicity (malaise, rare seizures, asthenia, anxiety and dysphoria) | 0.34 | increased survival | inhibited growth, by inhibiting weight gain | did | reduced the number and length of vascular sprouts | completely prevented outgrowth | did not inhibit liver regeneration | did not inhibit liver regeneration |  |
| COc1cccc2c1C(=O)c1c(O)c3c(c(O)c1C2=O)C[C@@](O)(C(=O)CO)C[C@@H]3O[C@H]1C[C@H](N)[C@H](O)[C@H](C)O1 [doxorubicin] |  |  |  |  |  |  |  |  |  |  |  |  |  |  |  | few minutes |
